Experiments:
[1] = tested on: Ba/F3 expressing FLT3-D835Y/ITD cells; test: Activity against Ba/F3 cells with FLT3-ITD and FLT3-D835Y mutation; type: cell-based; details: Mus musculus, BaF3; Ba/F3 FLT-ITD/D835Y cells; read-out: IC50 pFLT3 (text: decreased viability)
[2] = biological target: T1, FLT3-ITD (Homo sapiens, UniProt P36888); test: Inhibition of FLT3-ITD phosphorylation by western blot in Molm-13 cells; type: cell-based; details: tosylate salt, read-out: IC50, inhibition of phosphorylation of the FLT3-ITD receptor
T1 sequence (P36888 with tags, fused parts or gaps DUP594-600): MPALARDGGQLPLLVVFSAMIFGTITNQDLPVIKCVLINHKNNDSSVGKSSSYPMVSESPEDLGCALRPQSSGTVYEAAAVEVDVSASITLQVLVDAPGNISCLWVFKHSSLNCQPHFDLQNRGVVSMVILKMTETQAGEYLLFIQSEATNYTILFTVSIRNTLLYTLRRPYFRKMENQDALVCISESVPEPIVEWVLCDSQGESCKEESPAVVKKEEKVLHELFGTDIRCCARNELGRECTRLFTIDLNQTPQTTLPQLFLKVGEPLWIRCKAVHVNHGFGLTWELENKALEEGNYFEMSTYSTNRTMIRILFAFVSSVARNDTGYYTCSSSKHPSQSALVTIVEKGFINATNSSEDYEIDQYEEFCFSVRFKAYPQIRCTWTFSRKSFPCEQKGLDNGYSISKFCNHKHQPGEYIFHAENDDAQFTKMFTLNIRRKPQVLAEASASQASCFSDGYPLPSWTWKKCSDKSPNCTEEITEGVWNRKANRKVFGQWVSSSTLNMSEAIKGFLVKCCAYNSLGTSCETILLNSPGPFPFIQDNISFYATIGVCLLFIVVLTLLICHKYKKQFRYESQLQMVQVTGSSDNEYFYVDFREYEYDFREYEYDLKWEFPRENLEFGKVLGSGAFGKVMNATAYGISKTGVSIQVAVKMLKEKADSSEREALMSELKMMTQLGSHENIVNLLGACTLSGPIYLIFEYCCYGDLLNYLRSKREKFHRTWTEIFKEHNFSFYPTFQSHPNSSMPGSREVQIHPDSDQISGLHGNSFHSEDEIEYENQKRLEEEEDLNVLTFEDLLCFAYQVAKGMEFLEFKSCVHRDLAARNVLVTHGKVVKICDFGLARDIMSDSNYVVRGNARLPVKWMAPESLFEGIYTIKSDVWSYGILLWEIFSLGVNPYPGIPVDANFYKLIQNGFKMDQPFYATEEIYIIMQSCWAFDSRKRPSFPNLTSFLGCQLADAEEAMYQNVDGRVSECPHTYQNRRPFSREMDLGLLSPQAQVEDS
Experimental: The ability of the tosylate (toluenesulfonate) salt of CP-673,451 to inhibit phosphorylated FLT3 was determined using cell lines expressing FLT3-ITD, including Molm-13 (a human acute myeloid leukemia cell line) and BaF3 (bone marrow-derived pro-B-cell line) cells transduced to express FLT3. The effect was examined by western blot.

COCCOc1ccc2c(c1)ncn2-c1ccc2cccc(N3CCC(N)CC3)c2n1 [CP-673,451]
IC50 [1]: 23.8 nM
IC50 [2]: 0.7 nM
